Data taken from patent publication US8772318B2, “Methods and compositions related to targeting monoacylglycerol lipase” (The Scripps Research Institute, priority 2008, dated 2014).

Tests used:
MAGL [1] = target: T1, MAGL (Mus musculus, UniProt O35678); assay: Competitive ABPP, mouse brain membrane proteome; type: biochemical
T1 construct: from tissue; host or cells: mouse brain membrane fraction (C57Bl/6 mice for the in vivo studies)
T1 sequence (O35678 1-303): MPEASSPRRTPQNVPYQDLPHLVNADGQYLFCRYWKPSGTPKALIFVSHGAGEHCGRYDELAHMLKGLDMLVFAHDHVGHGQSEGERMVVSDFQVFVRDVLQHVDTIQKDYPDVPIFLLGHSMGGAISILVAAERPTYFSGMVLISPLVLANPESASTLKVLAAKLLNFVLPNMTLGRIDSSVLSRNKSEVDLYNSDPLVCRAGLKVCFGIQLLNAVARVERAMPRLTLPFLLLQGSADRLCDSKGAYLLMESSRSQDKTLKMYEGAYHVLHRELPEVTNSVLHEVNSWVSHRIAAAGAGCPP
From the text: (§1) First, serine hydrolases are susceptible to covalent inactivation by specific chemical groups that show little or no cross-reactivity with other enzyme classes. […] Second, the functional state of serine hydrolases can be collectively profiled in native biological systems using activity-based protein profiling (ABPP) methods (Cravat et al., Annu Rev Biochem 77:383-414, 2008). ABPP of serine hydrolases uses reporter-tagged fluorophosphonates (FPs), which serve as general activity-based probes for this large and diverse enzyme class (Liu et al., Proc. Natl. Acad. Sci. U.S.A. 96:14694-9, 1999). When performed in a competitive mode, ABPP can serve as a powerful screen to evaluate the potency and selectivity of small-molecule enzyme inhibitors directly in complex proteomes. The screen can be performed as described in the art, e.g., Liu et al., Proc. Natl. Acad. Sci. U.S.A. 96:14694-9, 1999; Li et al., J. Am. Chem. Soc. 129:9594-5, 2007; Leung et al., Nat. Biotech. 21:687-91, 2003; and Greenbaum et al., Mol. Cell. Proteomics 1:60-68, 2002.
(§2) Competitive activity-based protein profiling (ABPP) experiments. In vitro inhibitor selectivity was examined using a competitive ABPP method as described in the art (e.g., Li et al., J. Am. Chem. Soc. 129:9594-5, 2007; and Leung et al., Nat. Biotech. 21:687-91, 2003). Briefly, mouse brain membrane proteomes, prepared as described herein, were diluted to 1 mg/ml in PBS and pre-incubated with varying concentrations of inhibitors (1 nM to 10 μM) for 30 min at 37° C. prior to the addition of a FP-rhodamine at a final concentration of 2 μM in a 50 μl of total reaction volume. After 30 min at room temperature, the reactions were quenched with 4×SDS-PAGE loading buffer, boiled for 5 min at 90° C., subjected to SDS-PAGE, and visualized in-gel using a flatbed fluorescence scanner.
(§3) Every 10 min, 50 ul of the reaction was removed and treated with FP-rhodamine (2 μM) for 2 min, quenched with 4×SDS-PAGE loading buffer, and boiled for 5 min at 90° C. The combined reactions were subjected to SDS-PAGE and visualized in-gel using a flatbed fluorescence scanner. The percentage activity remaining was determined by measuring the integrated optical density corresponding to the MAGL or FAAH bands and the results were fit to an exponential curve to determine the pseudo-first order rate constants.

FAAH = target: T2, FAAH (Mus musculus, UniProt O08914); assay: Competitive ABPP, mouse brain membrane proteome; type: biochemical
T2 construct: from tissue; host or cells: mouse brain membrane fraction
T2 sequence (O08914 1-579): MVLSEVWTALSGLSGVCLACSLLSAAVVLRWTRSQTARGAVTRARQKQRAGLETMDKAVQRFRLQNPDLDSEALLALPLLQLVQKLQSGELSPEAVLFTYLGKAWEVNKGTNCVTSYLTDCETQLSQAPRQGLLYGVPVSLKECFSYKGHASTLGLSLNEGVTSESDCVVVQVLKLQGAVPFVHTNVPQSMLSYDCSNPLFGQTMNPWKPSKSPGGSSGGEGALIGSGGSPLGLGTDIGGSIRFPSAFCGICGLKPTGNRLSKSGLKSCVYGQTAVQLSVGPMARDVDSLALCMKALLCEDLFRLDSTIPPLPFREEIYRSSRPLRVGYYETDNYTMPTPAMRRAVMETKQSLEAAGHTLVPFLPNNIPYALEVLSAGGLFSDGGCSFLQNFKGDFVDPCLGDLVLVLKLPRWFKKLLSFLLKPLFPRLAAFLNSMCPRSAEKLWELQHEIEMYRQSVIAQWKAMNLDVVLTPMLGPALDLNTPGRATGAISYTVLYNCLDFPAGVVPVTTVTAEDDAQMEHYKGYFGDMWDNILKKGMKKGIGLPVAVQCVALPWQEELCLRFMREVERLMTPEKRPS
From the text: as §1, §2, §3

ABHD6 = target: T3, ABHD6 (Mus musculus, UniProt Q8R2Y0); assay: Competitive ABPP, mouse brain membrane proteome; type: biochemical
T3 construct: from tissue; host or cells: mouse brain membrane fraction
T3 sequence (Q8R2Y0 1-336): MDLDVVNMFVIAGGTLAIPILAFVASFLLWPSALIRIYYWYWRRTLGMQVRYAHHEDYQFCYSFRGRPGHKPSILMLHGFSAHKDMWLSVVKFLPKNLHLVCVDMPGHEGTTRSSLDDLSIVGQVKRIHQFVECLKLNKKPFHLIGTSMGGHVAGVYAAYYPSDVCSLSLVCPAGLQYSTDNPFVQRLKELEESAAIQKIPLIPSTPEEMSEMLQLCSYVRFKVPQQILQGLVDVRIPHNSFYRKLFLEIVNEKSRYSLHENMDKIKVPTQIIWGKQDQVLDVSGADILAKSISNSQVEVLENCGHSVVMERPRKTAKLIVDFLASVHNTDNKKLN
From the text: as §1, §2, §3

MAGL [2] = target: T4, MAGL (Homo sapiens, UniProt Q99685); assay: shRNA knockdown of MAGL, activity by ABPP and C20:4 MAG hydrolysis; type: cell-based; conditions: aggressive cancer lines, ABPP
T4 construct: endogenous in cells; host or cells: human cancer lines (C8161, MUM2B, MUM2C, SKOV3, OVCAR3, 231MFP, MCF7)
T4 sequence (Q99685 1-303): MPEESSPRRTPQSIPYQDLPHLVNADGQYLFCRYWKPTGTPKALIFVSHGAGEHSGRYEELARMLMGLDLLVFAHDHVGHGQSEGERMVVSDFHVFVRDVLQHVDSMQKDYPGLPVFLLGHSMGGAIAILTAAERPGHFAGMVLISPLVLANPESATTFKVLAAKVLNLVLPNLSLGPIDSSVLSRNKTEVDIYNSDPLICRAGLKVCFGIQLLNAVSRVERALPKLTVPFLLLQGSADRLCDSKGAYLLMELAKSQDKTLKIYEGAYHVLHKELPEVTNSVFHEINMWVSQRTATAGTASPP
Experimental: ABPP and hydrolytic activity assays of cancer cell proteomes. Identification and comparative quantitation of serine hydrolase activities from cancer cell proteomes by ABPP-MudPIT or gel-based ABPP was conducted as previously described using FP-biotin (5 μM) and FP-rhodamine (2 μM), respectively (Jessani et al., Proc. Natl. Acad. Sci. U.S.A 99:10335-10340, 2002; and Jessani et al., Nat. Methods 2:691-697, 2005). C20:4 MAG hydrolytic activity assays were performed as described previously (Blankman et al., Chem. Biol. 14:1347-1356, 2007). For ABPP experiments, cell lysate proteomes were treated with 2 μM FP-rhodamine for 30 min at room temperature (50 μl total reaction volume). Reactions were quenched with one volume of standard 4×SDS/PAGE loading buffer (reducing), separated by SDS/PAGE (10% acrylamide), and visualized in-gel with a Hitachi FMBio IIe flatbed fluorescence scanner (MiraiBio). Integrated band intensities were calculated for the labeled proteins and averaged from three independent cell samples to determine the level of each enzyme activity. IC50 values were determined from dose-response curves from three trials at each inhibitor concentration by using SigmaPlot 10.0. MAGL expression was also assessed by western blotting using standard procedures.
RNA interference studies in human cancer cell lines. […]

[3] = test system: human cancer cell lines (C8161, SKOV3, 231MFP, MUM2C, OVCAR3); assay: Lipid measurements in cancer cells; type: cell-based; conditions: aggressive melanoma, ovarian, breast cancer cells
Experimental: Pharmacological inhibition of MAGL in cancer cells. Pharmacological inhibition studies were conducted as described previously (Chiang et al., Chem. Biol. 13:1041-1050, 2006). Cancer cells were maintained in RPMI medium 1640 with 10% (v/v) fetal calf serum at 37° C. in a humidified atmosphere of 5% CO2/95% air. At 80% confluency, cells were trypsinized and counted using a hemocytometer, and 1×10^6 cells were plated in 6 cm dishes (subconfluent). […] After incubation for 4 hr, the cells were harvested and analyzed by ABPP or LC-MS.
Lipid measurements in cancer cells. Lipid measurements were conducted similarly to protocols described previously (Chiang et al., 2006; supra). Cancer cells were grown in serum-free media for 4 hrs to minimize the contribution of serum-derived lipids to the cellular profiles. The cells (1×10^6 cells/6 cm dish, 80% confluency) were washed with twice with phosphate buffer saline (PBS), isolated by centrifugation at 1,400×g, and dounce-homogenized in 4 ml of a 2:1:1 mixture of chloroform:methanol:Tris buffer. Samples were homogenized in the presence of the following synthetic standards: C12:0 MAGE (10 nmol), C15:0 FFA (10 nmol). Organic and aqueous layers were separated by centrifugation at 2000×g for 5 min and the organic layer was collected. The aqueous layer was acidified (for metabolites such as LPA) by adding 5% formic acid, followed by the addition of 2 ml chloroform. The mixture was vortexed, and the organic layers were combined, dried down under N2 and dissolved in 100 μl chloroform, of which 30 μl was analyzed by LC-MS.
LC-MS analysis was performed by using an Agilent 1100 LC-MSD SL instrument. […] Mobile phase A was composed of a 95:5 ratio of water:methanol, and mobile phase B consisted of 2-propanol, methanol, and water in a 60:35:5 ratio. Solvent modifiers such as 0.1% formic acid and 0.1% ammonium hydroxide were used to assist ion formation as well as to improve the LC resolution in both positive and negative ionization modes, respectively. The flow rate for each run started at 0.1 ml/min for 5 min, to alleviate backpressure associated with injecting chloroform. The gradient started at 0% B and increased linearly to 100% B over the course of 45 min with a flow rate of 0.4 ml/min, followed by an isocratic gradient of 100% B for 17 min at 0.5 ml/min before equilibrating for 8 min at 0% B with a flow rate of 0.5 ml/min. MS analysis was performed with an electrospray ionization (ESI) source. The capillary voltage was set to 3.0 kV, and the fragmentor voltage was set to 100 V. The drying gas temperature was 350° C., the drying gas flow rate was 10 L/min, and the nebulizer pressure was 35 psi.
Lipidomic analysis was performed in both targeted and untargeted mode by LC-MS analysis. Standard lipid classes were quantitated by targeting using selected ion monitoring (SIM) (except for very high-abundance metabolites which were quantitated by untargeted analysis) and identities of metabolites were confirmed by coelution of metabolites with their respective standards and mass accuracy to within 10 ppm as determined with an accurate mass Agilent 6520 Accurate Mass QTOF-MS-MS. These lipids were quantified by measuring the area under the peak and were normalized to an internal standard (C12:0 MAGE in positive mode or C15:0 FFA in negative mode). […]

`O=C(Oc1ccc([N+](=O)[O-])cc1)N1CCN(C(c2ccc(F)cc2)c2ccc(F)cc2)CC1` [WWL162] was tested. Which “effect on MAGL in competitive ABPP screen (FIG. 1B)” value (MAGL [1]) did it give?
The value was “preserve potency”.

And the “effect on FAAH in competitive ABPP screen (FIG. 1B)” value (FAAH)?
The value was “greatly reducing activity”.

What about the “effect on ABHD6 in competitive ABPP screen (FIG. 1B)” value (ABHD6) of the same compound?
Its value is “preserve potency”.

What does the source list for “shMAGL2: short hairpin RNA oligonucleotide for MAGL, 5′-AGACTACCCTGGGCTTCCT-3′ (SEQ ID NO:2) (expressed or natural sequence)”?
other serine hydrolase activities (MAGL [2]): unaffected; FFA levels in shMAGL cells [3]: corresponding reductions; MAG levels in shMAGL cells [3]: significant elevations

“shMAGL1: short hairpin RNA oligonucleotide for MAGL, 5′-CAACTTTCAAGGTCCTTGC-3′ (SEQ ID NO:1) (expressed or natural sequence)” was tested. Which “other serine hydrolase activities” value (MAGL [2]) did it give?
Its value is “unaffected”.

What about the “FFA levels in shMAGL cells” value [3] of the same compound?
The value was “corresponding reductions”.

What about the “MAG levels in shMAGL cells” value [3] of the same compound?
Its value is “significant elevations”.
